The values that follow come from patent US9102591B2, “Benzamides” (H. Lundbeck A/S, priority 2012, dated 2015).

pIC50: −log10 of the molar value.

Chain of P2X7 receptor (Q99572 whole entry): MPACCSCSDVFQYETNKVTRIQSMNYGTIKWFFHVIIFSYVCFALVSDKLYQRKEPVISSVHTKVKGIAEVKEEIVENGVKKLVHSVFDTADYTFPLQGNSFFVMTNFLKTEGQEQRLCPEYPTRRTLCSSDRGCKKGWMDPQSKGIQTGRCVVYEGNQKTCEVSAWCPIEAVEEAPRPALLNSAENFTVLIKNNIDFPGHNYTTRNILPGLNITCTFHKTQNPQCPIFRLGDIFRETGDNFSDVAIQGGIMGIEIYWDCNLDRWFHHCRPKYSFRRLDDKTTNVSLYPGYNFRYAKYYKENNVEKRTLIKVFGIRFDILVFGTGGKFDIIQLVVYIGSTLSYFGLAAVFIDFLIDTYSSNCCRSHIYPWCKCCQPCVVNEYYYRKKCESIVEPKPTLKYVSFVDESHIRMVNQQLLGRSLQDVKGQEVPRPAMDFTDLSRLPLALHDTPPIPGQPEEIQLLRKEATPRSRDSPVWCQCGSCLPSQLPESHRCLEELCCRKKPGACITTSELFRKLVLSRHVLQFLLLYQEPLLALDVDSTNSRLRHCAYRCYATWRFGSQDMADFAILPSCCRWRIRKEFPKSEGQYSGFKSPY

This test concerns the target P2X7 receptor (Homo sapiens (Human), UniProt Q99572). The test can be described thus: P2X7 FLIPR assay (BzATP-stimulated calcium fluorescence, antagonist IC50). The class given is cell-based. The method in brief:
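Cells expressing P2X7 receptor (human, rat or mouse), plated 24 hours earlier in low-serum medium, loaded with Fluo-4 NW dye (30 min 37° C, 30 min room temperature).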
Take `O=C(NCC(CC1CC1)c1ccc(C(F)(F)F)nc1)c1cccc(Cl)c1Cl` (stereo not drawn) [2,3-dichloro-N-[3-cyclopropyl-2-[6-(trifluoromethyl)-3-pyrid] [2,3-dichloro-N-[3-cyclopropyl-2-[6-(trifluoromethyl)-3-pyridyl]propyl]benzamide]: the pIC50 (in general, −log10 of the IC50, conventionally taken in molar units) is 9.26.
Then `COCCC(CNC(=O)c1cccc(Cl)c1Cl)c1cnc(C(F)(F)F)nc1` (stereo not drawn) [2,3-dichloro-N-[4-methoxy-2-[2-(trifluoromethyl)pyrimidin-5-yl]butyl]benzamide], with 5.66; and `Cc1ncc(C2(CNC(=O)c3cccc(Cl)c3Cl)CCC(F)(F)CC2)cn1` [2,3-dichloro-N-[[4,4-difluoro-1-(2-methylpyrimidin-5-yl)cyclohexyl]methyl]benzamide], with 8.07; and `O=C(NCC1(c2ccc(F)nc2)CCC(F)(F)CC1)c1cccc(Cl)c1Cl` [2,3-dichloro-N-[[4,4-difluoro-1-(6-fluoro-3-pyridyl)cyclohexyl]methyl]benzamide], with 9.55.
`O=C(NCC1(c2cnc(C(F)(F)F)nc2)CCC(F)(F)CC1)c1cccc(Cl)c1Cl` [2,3-dichloro-N-[[4,4-difluoro-1-[2-(trifluoromethyl)pyrimidin-5-yl]cyclohexyl]methyl]benzamide]: the negative-log IC50 (pIC50) is 9.02.
Then `CC(C)(O)c1ccc(C2(CNC(=O)c3cccc(Cl)c3Cl)CCC(F)(F)CC2)cn1` [2,3-dichloro-N-[[4,4-difluoro-1-[6-(1-hydroxy-1-methyl-ethyl)-3-pyridyl]cyclohexyl]methyl]benzamide], with 7.64; and `O=C(NCC1(c2cnc(C(F)(F)F)nc2)CCOCC1)c1cccc(Cl)c1Cl` [2,3-dichloro-N-[[4-[2-(trifluoromethyl)pyrimidin-5-yl]tetrahydropyran-4-yl]methyl]benzamide], with 6.60.
As for `O=C(NCC(c1ccccc1)c1ccc(C(F)(F)F)nc1)c1ccc(Cl)cc1Cl` (stereo not drawn) [2,4-dichloro-N-(2-phenyl-2-(6-(trifluoromethyl)pyridin-3-yl)ethyl)benzamide], the pIC50 is 7.60.
Then `O=C(NCC(c1ccccc1)c1ccnnc1)c1ccc(Cl)cc1Cl` (stereo not drawn) [2,4-dichloro-N-(2-phenyl-2-pyridazin-4-yl-ethyl)benzamide], with 6.14.
Then `O=C(NCC1(c2ccc(F)nc2)CCC(F)(F)CC1)c1cc(Cl)ccc1Cl` [2,5-dichloro-N-((4,4-difluoro-1-(6-fluoropyridin-3-yl)cyclohexyl)methyl)benzamide], with 8.64.
As to `O=C(NCC1(c2ccc(Cl)cc2)CCOCC1)c1c(Cl)cccc1Cl` [2,6-Dichloro-N-[4-(4-chloro-phenyl)-tetrahydro-pyran-4-ylmethyl]-benzamide], the pIC50 was 6.44.
Then `O=C(NCC(CC1CC1)c1cnc(C(F)(F)F)nc1)c1c(Cl)cccc1Cl` (stereo not drawn) [2,6-dichloro-N-(3-cyclopropyl-2-(2-(trifluoromethyl)pyrimidi] [2,6-dichloro-N-(3-cyclopropyl-2-(2-(trifluoromethyl)pyrimidin-5-yl)propyl)benzamide], with 8.29; and `O=C(NCC(CC1CC1)c1ccc(C(F)(F)F)nc1)c1c(Cl)cccc1Cl` (stereo not drawn) [2,6-dichloro-N-(3-cyclopropyl-2-(6-(trifluoromethyl)pyridin-] [2,6-dichloro-N-(3-cyclopropyl-2-(6-(trifluoromethyl)pyridin-3-yl)propyl)benzamide], with 9.15; and `Cc1ccc(Cl)c(C(=O)NCC2(c3cccnc3)CCCC2)c1` [2-Chloro-5-methyl-N-(1-pyridin-3-yl-cyclopentylmethyl)-benzamide], with 5.54.
Under `Cc1ccc(Cl)c(C(=O)NCC2(c3ccc(C)nc3)CCOCC2)c1` [2-Chloro-5-methyl-N-[4-(6-methyl-pyridin-3-yl)-tetrahydro-pyran-4-ylmethyl]-benzamide] stands 5.47; under `COc1ccc(C2(CNC(=O)c3cc(C)ccc3Cl)CCCC2)cc1` [2-Chloro-N-[1-(4-methoxy-phenyl)-cyclopentylmethyl]-5-methyl-benzamide], 6.72; under `Cc1ccc(Cl)c(C(=O)NCC2(c3ccc(Cl)cc3)CCOCC2)c1` [2-Chloro-N-[4-(4-chloro-phenyl)-tetrahydro-pyran-4-ylmethyl]-5-methyl-benzamide], 7.21.
Under `O=C(NCC1(c2ccc(Cl)cc2)CCOCC1)c1ccccc1Cl` [2-Chloro-N-[4-(4-chloro-phenyl)-tetrahydro-pyran-4-ylmethyl]-benzamide] stands 6.10; under `Cc1ccccc1C(=O)NCC1(c2ccccc2)CCN(C)CC1` [2-Methyl-N-(1-methyl-4-phenyl-piperidin-4-ylmethyl)-benzamide], 7.19; under `Cc1ccccc1C(=O)NCC1(c2cccnc2)CCCC1` [2-Methyl-N-(1-pyridin-3-yl-cyclopentylmethyl)-benzamide], 5.44.
For the compound `Cc1ccc(C(CNC(=O)c2ccccc2C)CC(C)C)cn1` (stereo not drawn) [2-Methyl-N-[4-methyl-2-(6-methyl-pyridin-3-yl)-pentyl]-benzamide], the pIC50 was 7.54.
Then `Cc1ncc(C2(C(C)NC(=O)c3cccc(F)c3Cl)CCOCC2)cn1` (stereo not drawn) [2-chloro-3-fluoro-N-[1-[4-(2-methylpyrimidin-5-yl)tetrahydropyran-4-yl]ethyl]benzamide], with 7.82.
Then `Cc1ncc(C(CNC(=O)c2cccc(F)c2Cl)c2ccncc2)cn1` (stereo not drawn) [2-chloro-3-fluoro-N-[2-(2-methylpyrimidin-5-yl)-2-(4-pyridyl)ethyl]benzamide], with 6.07; and `Cc1ncc(C(CNC(=O)c2cccc(F)c2Cl)C2CCOCC2)cn1` (stereo not drawn) [2-chloro-3-fluoro-N-[2-(2-methylpyrimidin-5-yl)-2-tetrahydropyran-4-yl-ethyl]benzamide], with 6.68; and `Cc1ncc(C(CNC(=O)c2c(F)cccc2Cl)C2CCOCC2)cn1` (stereo not drawn) [2-chloro-6-fluoro-N-[2-(2-methylpyrimidin-5-yl)-2-tetrahydropyran-4-yl-ethyl]benzamide], with 5.72.
Then `O=C(NCC1(c2cnc(C(F)(F)F)nc2)CCOCC1)c1c(F)cccc1Cl` [2-chloro-6-fluoro-N-[[4-[2-(trifluoromethyl)pyrimidin-5-yl]tetrahydropyran-4-yl]methyl]benzamide], with 5.80; and `O=C(NCC(CC1CC1)c1cnc(C(F)(F)F)nc1)c1cccc(F)c1Cl` (stereo not drawn) [2-chloro-N-(3-cyclopropyl-2-(2-(trifluoromethyl)pyrimidin-5-] [2-chloro-N-(3-cyclopropyl-2-(2-(trifluoromethyl)pyrimidin-5-yl)propyl)-3-fluorobenzamide], with 7.85; and `O=C(NCC(CC1CC1)c1cnc(C(F)(F)F)nc1)c1c(F)cccc1Cl` (stereo not drawn) [2-chloro-N-(3-cyclopropyl-2-(2-(trifluoromethyl)pyrimidin-5-] [2-chloro-N-(3-cyclopropyl-2-(2-(trifluoromethyl)pyrimidin-5-yl)propyl)-6-fluorobenzamide], with 7.66.
With `O=C(NCC(CC1CC1)c1cnc(C(F)(F)F)nc1)c1ccccc1Cl` (stereo not drawn) [2-chloro-N-(3-cyclopropyl-2-(2-(trifluoromethyl)pyrimidin-5-] [2-chloro-N-(3-cyclopropyl-2-(2-(trifluoromethyl)pyrimidin-5-yl)propyl)benzamide], the negative-log IC50 (pIC50) was 7.89.
With `O=C(NCC(CC1CC1)c1ccc(C(F)(F)F)nc1)c1ccc(F)cc1Cl` (stereo not drawn) [2-chloro-N-(3-cyclopropyl-2-(6-(trifluoromethyl)pyridin-3-yl)propyl)-4-fluorobenzamide], the pIC50 is 6.51.
